ChEMBL document CHEMBL3600289, “A double bond-conjugated dimethylnitrobenzene-type photolabile nitric oxide donor with improved two-photon cross section” (Bioorg Med Chem Lett, 2015)
Calls of active or inactive are those of the source. No cut-off for these calls is given here.

Tests used:
HCT-116 [1] = assay: Induction of nitric oxide release in human HCT116 cells at 25 uM preincubated for 1 hr followed by irradiation with 950 nm pulse laser for 1 sec by confocal microscopic analysis; type: functional, cell-based
[2] = Induction of nitric oxide release in water/DMSO mixture irradiated with 100W Hg lamp at 450 to 480 nm at 1 mM by […] complex-based ESR spin trapping method; type: physicochemical; conditions: buffer, 0.48 µM
[3] = Induction of nitric oxide release in water/DMSO mixture irradiated with 100W Hg lamp at 330 to 380 nm at 1 mM by […] complex-based ESR spin trapping method; type: physicochemical; conditions: buffer, 0.38 µM
HCT-116 [4] = assay: Induction of nitric oxide release in human HCT116 cells at 25 uM incubated for 1 hr by confocal microscopic analysis in absence of irradiation; type: functional, cell-based
[5] = Induction of nitric oxide release in water/DMSO mixture irradiated with 100W Hg lamp at 450 to 480 nm by […] complex-based ESR spin trapping method; type: physicochemical; conditions: buffer, 0.48 µM

| SMILES | Activity (HCT-116 [1]) | Activity [2] | Activity [3] | Activity (HCT-116 [4]) | Activity [5] |
| --- | --- | --- | --- | --- | --- |
| Cc1cc(/C=C/c2ccc(/C=C/c3ccc(-c4c5ccc(=O)cc-5oc5cc(O)ccc45)c(C(=O)O)c3)cc2)cc(C)c1[N+](=O)[O-] | Active | Active | Active | inactive | – |
| Cc1cc(/C=C/c2ccc(C(=O)Nc3ccc(-c4c5ccc(=O)cc-5oc5cc(O)ccc45)c(C(=O)O)c3)cc2)cc(C)c1[N+](=O)[O-] | – | – | – | – | Not Active |
